According to patent US20030022938A1, “N-fatty acid-amino acid conjugates and therapeutic uses” (priority 2001, published 2003):
“Also recorded” adds a separate entry of the source.

Experiments:
human T lymphocytes [1] = assay: Proliferation of anti CD3, CD4 treated human T lymphocytes; type: cell-based; details: 0.1 to 1.0 mM, vs vehicle (DMSO)
IL-1β [2] = assay: IL-1β release from human peripheral blood monocytes (ELISA), LPS stimulated or not stimulated; type: cell-based; parameters: IL-lé release from PBM not stimulated with LPS (adherence only): dose or concentration left out as unconfirmed; details: for IL-lé secretion from LPS stimulated peripheral blood mononuclear cells: 60 min preincubation, LPS 10 ng/ml 18 hours; for IL-lé release from PBM not stimulated with LPS (adherence only): unstimulated cells, 18 hours
Description: Cells (2×106) were incubated for 60 minutes with either agent at the indicated concentrations. Vehicle (0.5% DMSO) treated cells served as controls. Cells were then not stimulated (FIG. 3A) or stimulated (FIG. 3B) with LPS (10 ng/ml) for 18 hours, at which time supernatant IL-lé was measured by ELISA. Values shown are the means obtained from triplicate samples (Control A=826 pg/ml; Control B=8.68±0.5 ng/ml).

human T-lymphocytes = assay: PHA stimulated T-cell proliferation (BrDU incorporation); type: cell-based; details: 0.1-10 mM, PHA 10 ng/ml, 72 hours
Description: The cells were then stimulated with PHA (10 ng/ml) and incubated for 72 hours. A control set treated with NAGly/DMSO not stimulated with PHA was incubated in parallel. Cell numbers were determined by measuring BrDU incorporation for 24 hours. The values shown (see “PRO[…]” on the y-axis) are the ratios of the optical density readings from treated and control cells.
Cell proliferation in vitro was measured by incorporation of 5-bromo-2′-deoxyuridine (BrDU) instead of thymidine into the DNA of proliferating cells. […] Cells (2×10^5 per well) were then cultured in 96 well, flat bottomed microtiter plates and stimulated with PHA (10 ng/ml) or not stimulated. Cultures were maintained for 72 hours in a standard cell incubator at 37° C. BrDU was then added to all wells and cells are then reincubated for 24 hours. The medium was removed and the cells were fixed and DNA was denatured. Anti-BrDU-peroxidase was added and the immune complex was detected by substrate (tetramethylbenzidine) reaction. The reaction was stopped with […] sulfuric acid (1N) and the product was quantified by measuring the absorbance at 492 nm with reference at 650 nm. Absorbance correlated directly to the amount of DNA synthesis, and, thereby, to the number of proliferating cells in each culture.

IL-1β [3] = details: concentrations of 1 μm and 10 μm; Burstein et al. 2000; cited from earlier work
[4] = system: formalin-induced pain behavior; assay: Formalin test for pain reduction; type: in vivo; details: rats
Description: Rats received intraplantar injections of formalin in the hindpaw, and pain behavior consisting of lifting and licking of the injected paw was observed. Drug or co-vehicle was coinjected with the formalin solution (4.5% formalin in 10% DMSO, 100μl, s.c., ipl.).

[5] = system: arachidonic acid-induced paw edema; assay: Arachidonic acid-induced paw edema test; type: in vivo, mice
Description: The conditions employed in the paw edema test have been previously described (Calhoun et al., Agents Actions, 21:306-309, 1987; Burstein et al., J. Pharmacology and Experimental Therapeutics, 251:531-535; Burstein et al., J. Med. Chem., 35:3135-41, 1992), with water being substituted for mercury as the displacement medium. Arachidonic acid (1.0 mg) in 25 μl of saline is injected subcutaneously into the plantar surface of the right hindpaw of ether-anesthetized CD-1 female mice (20-25 g) obtained from Charles River Laboratories. The volume of the right foot is then measured to the level of the lateral malleolus by water displacement before treatment and 30 minutes after arachidonic acid injection. An N-fatty acid-amino acid conjugate, in 50 μl of peanut oil, is given p.o. to the mice 30 min prior to the induction of edema by arachidonic acid. The change in paw volume is calculated for each mouse and the significance for each group can be determined by an ANOVA test.
The conditions were previously described by Calhoun et al. (Agents Actions, 21:306-309, 1987), and by Burstein et al. (J. Pharmacology and Experimental Therapeutics, 251:531-535; J. Med. Chem., 35:3135-41, 1992), with water being substituted for mercury as the displacement medium. Arachidonic acid (1.0 mg in 25μl of saline) was injected subcutaneously into the plantar surface of the right hindpaw of ether-anesthetized CD-1 female mice (20-25 g) obtained from Charles River Laboratories. The volume of the right foot was measured to the level of the lateral malleous by water displacement before treatment and 30 minutes after arachidonic acid injection. […] The change in paw volume was calculated for each mouse and the significance for each group was determined by an ANOVA test.

[6] = system: anandamide levels in RAW cells; assay: Anandamide levels in intact cultured RAW cells (HPLC-MS/MS); type: cell-based, murine; parameters: elevation of basal concentrations of anandamide: dose or concentration left out as unconfirmed
Description: Cells were grown as described previously (Pestonjamasp and Burstein, Biochim Biophys Acta, 1394(2-3):249-60, 1998).

NF-κB = assay: NFk-B inhibition studies in PBM (DNA binding, autoradiographic-PAGE); type: cell-based; details: 1 hour, then LPS 10 ng/ml 60 minutes; human PBM, two donors
Description: PBM from two donors were prepared and treated separately. Cell extracts were then obtained and analyzed for DNA binding of NF-kB, as determined by autoradiographic-PAGE measurement, according to the following method. […] Media were then removed and the cells were transferred to 1.5 ml microcentrifuge tubes and washed 2 times with ice cold PBS. After centrifugation at 10,000 rpm, PBS was removed and 0.5 ml of cytoplasmic extraction buffer (buffer A) was added to the cell pellet. Tubes were vortexed and placed on ice for 10 minutes, then centrifuged at 12,000 rpm for 5 minutes. Cells were washed once with buffer A, which was then added to previous cytosol extract fraction. Cytoplasmic extracts were saved at −80° C. until use. 0.1 ml of cold nuclear extraction buffer (buffer B) was then added to precipitated nuclei and incubated for 60-120 minutes in ice. Nuclear extracts were obtained by centrifugation at 12,000 rpm for 10 minutes and saved at −80° C. until use. (Extraction buffer A is a hypotonic solution and contains HEPES, KCl, EDTA, EGTA, DTT, PMSF, leupeptin, antipain, aprotinin, and NP-40 detergent. Extraction buffer B is a high salt buffer and contains all of the above agents plus glycerol.) The protein concentrations of the nuclear extracts were determined by the Bradford protein assay (Coumassie blue staining). […] Gels were scanned and analysed utilizing the Adobe software for PC.

human T lymphocytes [7] = details: Burstein et al. 2000; cited from earlier work
[8] = system: arachidonic acid release in RAW cells; assay: Arachidonic acid release in RAW cells; type: cell-based, murine
Description: Radiolabelled arachidonic acid was incorporated into the cellular lipid pools for 20 hours. […] Over the concentration range of 1.6-32 mM, a 300% increase in labeled, free arachidonic acid was found in the media when compared to vehicle treated control values. Media from cells in the control group contained 8,800±1600 dpm.
The cells were grown in MEM with 1% penicillin-streptomycin and 10% fetal bovine serum at 37° C. under 95% […]:5% carbon dioxide to about 85% confluence. Cells were contained in 24-well plates and labeled with 100,000 dpm/ml/well of ^3H or ^14C arachidonic acid at 37° C. for 20 hours (Pestonjamasp and Burstein, Biochim Biophys Acta, 1394(2-3):249-60, 1998). The wells were washed 4 times with 0.5% BSA in MEM followed by incubation in 1 ml 0.1% BSA-MEM for 60 minutes. […] Control values were obtained with 10 μl of vehicle. Media were collected, centrifuged at 3000×g to remove cells, and 0.1 ml withdrawn and assayed for radioactivity by liquid scintillation counting.

[9] = system: blood levels of anandamide; details: 10 mg/kg p.o., rats, 45 minutes post treatment, vs vehicle-treated
Description: Anandamide and NAGly levels were measured in plasma extracts by HPLC-MS/MS with d8-anandamide added as an internal standard. Reverse phase HPLC was performed on a 100×1 mm i.d. column packed with ODS Hypersil® (3 μm, 120 A pore size, Keystone Scientific, Inc., Bellefonte, Pa.). A Rheos® 2000 micro HPLC pumping system was used to pump the mobile phase (90% methanol, 10% 0.05% pH 5.7 aqueous ammonium acetate buffer) at 50μl/minute. The outlet from the column was connected directly to the electrospray ion source of a Finnigan® LCQ quadrupole ion trap mass spectrometry system. Positive ion electrospray ionization was used with the source at 4500 V, the capillary at 200° and the nitrogen sheath gas at a relative setting of 60. NAGly eluted at 1.4 minutes and was detected by MS2 of its MH+ion (m/z 362.2) with an isolation window of 2.5 Th and relative collision energy (CID) of 29%. Full product ion spectra were collected from m/z 95-370 and peak areas from ion plots of m/z 287.2 were used for quantitation. Anandamide and d8-anandamide were similarly detected using their MH+ions (m/z 348.2 and 356.2) as precursors with isolation windows of 2.5 Th and CID at 30%. […] Concentrations of NAGly and anandamide were calculated from their peak area ratios to the internal standard with reference to an external calibration curve. […]

[10] = system: RAW 264.7 murine monocyte cells; assay: RAW cell proliferation (MTT assay); type: cell-based; details: 24 hours treatment; 25, 50 and 100 mM
Description: Cells were maintained in MEM containing 0.5% serum overnight. […] After a 24 hour incubation period, […] MTT (Sigma Co) solution (5 mg/ml in PBS) was added to each well and incubated for 2 hours at 37° C. Then, cells were triturated in 1.1 ml isopropanol MTT solubilization solution (Sigma Co). […] of this mixture was then transferred in duplicate to a 96 well plate and the optical density recorded using a ThermoMax® microplate reader at […] absorbance. Based on a standard curve with known numbers of cells, experimental readings were in the linear range for cell numbers.
Values shown in FIG. 5 are optical density readings obtained using the MTT assay and are directly proportional to the numbers of cells. They are the means of four replicates ± SD. […] The values shown are the optical density readings obtained from the MTT assay where a value of 0.5 is approximately equivalent to 2×10^4 cells. Vehicle treated cells served as the control and gave a reading of 0.396±0.047 O.D. units. The data shown is representative of three independent experiments.

[11] = 275 nmol coinjected with formalin

With `CCCCC/C=C\C/C=C\C/C=C\C/C=C\CCCC(=O)NCCO` [anandamide, reference compound] the “proliferation of anti CD3, CD4 treated human T lymphocytes” value (from here on “proliferation of anti CD3”) (human T lymphocytes [1]) was “either no effect or a modest inhibition”, the “proliferation of anti CD3” value (human T lymphocytes [1]; listed as Anandamide) was “only inhibition” and the “IL-lé secretion from LPS stimulated peripheral blood mononuclear cells” value (“IL-lé secretion” below) (IL-1β [2]) was “smaller effect”. The “IL-lé secretion” value (IL-1β [2]; listed as Anandamide) was “less effective than NAGly”, the “IL-lé release from PBM not stimulated with LPS (adherence only)” value (IL-1β [2]) was “less effective than NAGly” and the “proliferation of PHA stimulated T-cells (proliferation index)” value (human T-lymphocytes) was “little or no effect”. For the same molecule, the “proliferation of PHA stimulated T-cells (proliferation index)” value (human T-lymphocytes; listed as Anandamide) was “no significant effects” and the “IL-1β secretion from stimulated human PBMC” value (IL-1β [3]) was “modestly suppress”.
For `CCCCC/C=C\C/C=C\C/C=C\C/C=C\CCCC(=O)O` [arachidonic acid, reference compound], the “pain suppression in the formalin test” value [4, 11] was “Neither glycine nor arachidonic acid (275 nmol) suppressed pain”.
In the case of `NCC(=O)O` [glycine, reference compound], the “pain suppression in the formalin test” value [4, 11] is reported as “Neither glycine nor arachidonic acid (275 nmol) suppressed pain”.
For `COc1ccc2c(c1)c(CC(=O)O)c(C)n2C(=O)c1ccc(Cl)cc1` [indomethacin, reference compound], the “paw edema response of the reference NSAID” value ([5]; 0.2 mg/kg) was “equivalent response”.
For “Deuterated N-arachidonylglycine [d8-NAGly]”, the “elevation of basal concentrations of anandamide” value [6] was 50%, the “increase in anandamide (unlabelled)” value ([6]; 10 mM deuterated NAGly) was roughly 3 ng/mL and the “increase in d8-anandamide” value ([6]; 10 mM deuterated NAGly) was less than 0.5 ng/mL.
In the case of N-arachidonyl glycine [NAGly], the “proliferation of anti CD3” value (human T lymphocytes [1]) is reported as “inverse dose-related increase; also recorded: stimulatory at low concentrations and somewhat inhibitory at higher concentrations”, the “IL-lé secretion” value (IL-1β [2]) is reported as “more effective inhibitor than anandamide; also recorded: suppresses; also recorded: inhibitory in a dose-related fashion” and the “IL-lé release from PBM not stimulated with LPS (adherence only)” value (IL-1β [2]) is reported as “more effective inhibitor than anandamide; also recorded: striking reduction; also recorded: markedly reduces”. The “second phase (tonic pain) of the formalin response” value ([4]; 275 nmol coinjected with formalin, intraplantar) was “markedly suppressed”, the “first phase (acute pain) of the formalin response” value ([4]; coinjected with formalin, intraplantar) was “no effect” and the “binding of NF k-B to DNA / NFk-B activation” value (NF-κB) was “effectively reduces; also recorded: strong inhibitory effect”. The “proliferation of CD3-CD4 antibody-stimulated T-cells, prior observation” value (human T lymphocytes [7]) was “biphasic effect”, the “increase in labeled, free arachidonic acid in the media” value ([8]; 1.6-32 mM, 60 minutes, vs vehicle treated control) was 300% and the “stimulation of arachidonic acid release” value ([8]; range of 2-32 mM) was “three fold stimulation”. The “rise in blood levels of anandamide” value [9] was “nearly ten-fold rise”, the “elevation of basal concentrations of anandamide” value [6] was 50% and the “inhibition of RAW cell proliferation (MTT optical density)” value [10] was “dose-related inhibition; also recorded: Significant decreases in cell numbers; also recorded: significant inhibition of cell proliferation”. The “IL-1β secretion from stimulated human PBMC” value (IL-1β [3]) was “modestly suppress”, the “reduction of paw volumes” value ([5]; 4 mg/kg orally, vs vehicle treated) was “reduced paw volumes by one half” and the “paw edema response compared with indomethacin” value ([5]; NAGly 4 and 40 mg/kg vs 0.2 mg/kg indomethacin) was “equivalent response”. The “reduction of paw edema” value ([5]; doses of 4 and 40 mg/kg p.o., 30 min before arachidonic acid, vs untreated control mice that received only arachidonic acid) was “more than 50%”.
